Results as given in PMC12250302, “Synthesis, Antimicrobial Activities, and Model of Action of Novel Tetralone Derivatives Containing Aminoguanidinium Moiety” (International Journal of Molecular Sciences, 2025).
Values after ≈ are worked out from the molar mass of the structure shown.

Legend:
Experiment in all cases: MIC and MBC testing, broth microdilution
[1] = test system: E. faecium ATCC 35667; format: cell-based, Enterococcus faecium; details: Enterococcus faecium, ATCC35667, E. faecium ATCC 35667; for MIC: 18 h, read-out: MIC; for MBC: read-out: MBC
Excerpt: (§1) The minimum inhibitory concentrations (MICs) and minimum bactericidal concentrations (MBCs) of the synthesized compounds effective against ESKAPE strains, S. aureus clinical isolates, and MRSA were investigated by the broth dilution method. Levofloxacin is a broad-spectrum antibacterial agent that is widely used in the treatment of ESKAPE infections. Therefore, levofloxacin was selected as the positive control for the preliminary activity screening. DMSO (0.1%) was selected as the negative control.
(§2) The minimum inhibitory concentration (MIC) of all synthesized compounds was tested by the broth microdilution method. In brief, compounds dissolved in DMSO were diluted twice continuously in a 96-well plate with MH broth. The ESKAPE pathogens (E. coli ATCC 25922, S. aureus ATCC 29213, K. pneumoniae ATCC 700603, A. baumannii ATCC 19606, P. aeruginosa ATCC 27853, and E. faecium ATCC 35667), clinical S. aureus isolates (LMY45, LMY46, LMY47, and LMY48) and methicillin-resistant Staphylococcus aureus (MRSA-1 and MRSA-2) were cultured in MH broth to logarithmic growth phase and then diluted to 1 × 10^6 CFU/mL in MH broth. Subsequently, the diluted bacterial solution was mixed with the diluted compound solution in a 96-well plate and incubated at 37 °C for a duration of 18 h. The MIC of the compounds was recorded as the lowest concentration at which no visible growth was observed. […] Each concentration was replicated thrice.

[2] = test system: S. aureus ATCC 29213; format: cell-based, Staphylococcus aureus; details: Staphylococcus aureus, ATCC29213, S. aureus ATCC 29213; for MIC: 18 h, read-out: MIC; for MBC: read-out: MBC
Excerpt: as §1, §2

[3] = test system: K. pneumoniae ATCC 700603; format: cell-based, Klebsiella pneumoniae; details: Klebsiella pneumoniae; for MIC: ATCC700603, 18 h, read-out: MIC; for MBC: ATCC700603, read-out: MBC
Excerpt: as §1, §2

[4] = test system: A. baumannii ATCC 19606; format: cell-based, Acinetobacter baumannii; details: Acinetobacter baumannii; for MIC: ATCC19606, 18 h, read-out: MIC; for MBC: ATCC19606, read-out: MBC
Excerpt: as §1, §2

[5] = test system: P. aeruginosa ATCC 27853; format: cell-based, Pseudomonas aeruginosa; details: Pseudomonas aeruginosa; for MIC: ATCC27853, 18 h, read-out: MIC; for MBC: ATCC27853, read-out: MBC
Excerpt: as §1, §2

[6] = test system: E. coli ATCC 25922; format: cell-based, Escherichia coli; details: Escherichia coli; for MIC: ATCC25922, 18 h, read-out: MIC; for MBC: ATCC25922, read-out: MBC
Excerpt: as §1, §2

[7] = test system: MRSA-1; format: cell-based, Staphylococcus aureus; details: Staphylococcus aureus, MRSA-1; for MIC: 18 h, read-out: MIC; for MBC: read-out: MBC
Experimental: (§3) Furthermore, the MBC values of the compounds were detected.
as §2, with “h.” for “h. The MIC of the compounds was recorded as the lowest concentration at which no visible growth was observed.”

[8] = test system: MRSA-2; format: cell-based, Staphylococcus aureus; details: Staphylococcus aureus, MRSA-2; for MIC: 18 h, read-out: MIC; for MBC: read-out: MBC
Experimental: as §3
as §2, with “h.” for “h. The MIC of the compounds was recorded as the lowest concentration at which no visible growth was observed.”

[9] = test system: clinical S. aureus isolate LMY45; format: cell-based, Staphylococcus aureus; details: Staphylococcus aureus, LMY45; for MIC: 18 h, read-out: MIC; for MBC: read-out: MBC
Experimental: as §3
as §2, with “h.” for “h. The MIC of the compounds was recorded as the lowest concentration at which no visible growth was observed.”

[10] = test system: clinical S. aureus isolate LMY46; format: cell-based, Staphylococcus aureus; details: Staphylococcus aureus, LMY46; for MIC: 18 h, read-out: MIC; for MBC: read-out: MBC
Experimental: as §3
as §2, with “h.” for “h. The MIC of the compounds was recorded as the lowest concentration at which no visible growth was observed.”

[11] = test system: clinical S. aureus isolate LMY47; format: cell-based, Staphylococcus aureus; details: Staphylococcus aureus, LMY47; for MIC: 18 h, read-out: MIC; for MBC: read-out: MBC
Experimental: as §3
as §2, with “h.” for “h. The MIC of the compounds was recorded as the lowest concentration at which no visible growth was observed.”

[12] = test system: clinical S. aureus isolate LMY48; format: cell-based, Staphylococcus aureus; details: Staphylococcus aureus, LMY48; for MIC: 18 h, read-out: MIC; for MBC: read-out: MBC
Experimental: as §3
as §2, with “h.” for “h. The MIC of the compounds was recorded as the lowest concentration at which no visible growth was observed.”

MIC [1] | MIC [2] | MIC [3] | MIC [4] | MIC [5] | MIC [6] | MIC [7] | MIC [8] | MIC [9] | MIC [10] | MIC [11] | SMILES | MBC [1] | MBC [2] | MBC [3] | MBC [4] | MBC [6] | MBC [7] | MBC [8] | MBC [9] | MBC [10] | further results
4 µg/mL (≈ 11.6 µM) | 2 µg/mL (≈ 5.81 µM) | 16 µg/mL (≈ 46.5 µM) | 8 µg/mL (≈ 23.2 µM) | 32 µg/mL (≈ 92.9 µM) | 8 µg/mL (≈ 23.2 µM) | 2 µg/mL (≈ 5.81 µM) | 2 µg/mL (≈ 5.81 µM) | 2 µg/mL (≈ 5.81 µM) | 4 µg/mL (≈ 11.6 µM) | 2 µg/mL (≈ 5.81 µM) | [H]/N=C(\N)NN=C1CCCc2cc(OCc3ccc(F)cc3F)ccc21 [Compound 1D, (E)-2-(6-((2,4-difluorobenzyl)oxy)-3,4-dihydronaphthalen-1(2H)-ylidene)hydrazine-1-carboximidamide] | 16 µg/mL (≈ 46.5 µM) | 8 µg/mL (≈ 23.2 µM) | 16 µg/mL (≈ 46.5 µM) | 8 µg/mL (≈ 23.2 µM) | 8 µg/mL (≈ 23.2 µM) | 32 µg/mL (≈ 92.9 µM) | 32 µg/mL (≈ 92.9 µM) | 4 µg/mL (≈ 11.6 µM) | 32 µg/mL (≈ 92.9 µM) | MBC [5]: 32 µg/mL (≈ 92.9 µM); MBC [11]: 8 µg/mL (≈ 23.2 µM); MIC [12]: 2 µg/mL (≈ 5.81 µM); MBC [12]: 4 µg/mL (≈ 11.6 µM)
8 µg/mL (≈ 23.2 µM) | 4 µg/mL (≈ 11.6 µM) | 32 µg/mL (≈ 92.9 µM) | 16 µg/mL (≈ 46.5 µM) | > 32 µg/mL | 16 µg/mL (≈ 46.5 µM) | 4 µg/mL (≈ 11.6 µM) | 4 µg/mL (≈ 11.6 µM) | 4 µg/mL (≈ 11.6 µM) | 4 µg/mL (≈ 11.6 µM) | 4 µg/mL (≈ 11.6 µM) | [H]/N=C(\N)NN=C1CCCc2cc(OCc3c(F)cccc3F)ccc21 [Compound 1F, (E)-2-(6-((2,6-difluorobenzyl)oxy)-3,4-dihydronaphthalen-1(2H)-ylidene)hydrazine-1-carboximidamide] | 16 µg/mL (≈ 46.5 µM) | 16 µg/mL (≈ 46.5 µM) | 32 µg/mL (≈ 92.9 µM) | 16 µg/mL (≈ 46.5 µM) | 16 µg/mL (≈ 46.5 µM) | 32 µg/mL (≈ 92.9 µM) | 16 µg/mL (≈ 46.5 µM) | 8 µg/mL (≈ 23.2 µM) | > 32 µg/mL | MBC [11]: 8 µg/mL (≈ 23.2 µM); MIC [12]: 4 µg/mL (≈ 11.6 µM); MBC [12]: 16 µg/mL (≈ 46.5 µM)
4 µg/mL (≈ 12.3 µM) | 4 µg/mL (≈ 12.3 µM) | 16 µg/mL (≈ 49 µM) | 8 µg/mL (≈ 24.5 µM) | 32 µg/mL (≈ 98 µM) | 8 µg/mL (≈ 24.5 µM) | 2 µg/mL (≈ 6.13 µM) | 2 µg/mL (≈ 6.13 µM) | 2 µg/mL (≈ 6.13 µM) | 2 µg/mL (≈ 6.13 µM) | 2 µg/mL (≈ 6.13 µM) | [H]/N=C(\N)NN=C1CCCc2cc(OCc3cccc(F)c3)ccc21 [Compound 1B, (E)-2-(6-((3-fluorobenzyl)oxy)-3,4-dihydronaphthalen-1(2H)-ylidene)hydrazine-1-carboximidamide] | 16 µg/mL (≈ 49 µM) | 16 µg/mL (≈ 49 µM) | 16 µg/mL (≈ 49 µM) | 16 µg/mL (≈ 49 µM) | 8 µg/mL (≈ 24.5 µM) | 8 µg/mL (≈ 24.5 µM) | 8 µg/mL (≈ 24.5 µM) | 4 µg/mL (≈ 12.3 µM) | 16 µg/mL (≈ 49 µM) | MBC [5]: 32 µg/mL (≈ 98 µM); MBC [11]: 8 µg/mL (≈ 24.5 µM); MIC [12]: 4 µg/mL (≈ 12.3 µM); MBC [12]: 4 µg/mL (≈ 12.3 µM)
4 µg/mL (≈ 10.6 µM) | 2 µg/mL (≈ 5.31 µM) | 32 µg/mL (≈ 85 µM) | 8 µg/mL (≈ 21.3 µM) | 32 µg/mL (≈ 85 µM) | 4 µg/mL (≈ 10.6 µM) | 2 µg/mL (≈ 5.31 µM) | 2 µg/mL (≈ 5.31 µM) | 1 µg/mL (≈ 2.66 µM) | 2 µg/mL (≈ 5.31 µM) | 2 µg/mL (≈ 5.31 µM) | [H]/N=C(\N)NN=C1CCCc2cc(OCc3cccc(C(F)(F)F)c3)ccc21 [Compound 1I, (E)-2-(6-((3-(trifluoromethyl)benzyl)oxy)-3,4-dihydronaphthalen-1(2H)-ylidene)hydrazine-1-carboximidamide] | 8 µg/mL (≈ 21.3 µM) | 16 µg/mL (≈ 42.5 µM) | 32 µg/mL (≈ 85 µM) | 8 µg/mL (≈ 21.3 µM) | 4 µg/mL (≈ 10.6 µM) | 16 µg/mL (≈ 42.5 µM) | 4 µg/mL (≈ 10.6 µM) | 4 µg/mL (≈ 10.6 µM) | 4 µg/mL (≈ 10.6 µM) | MBC [5]: 32 µg/mL (≈ 85 µM); MBC [11]: 2 µg/mL (≈ 5.31 µM); MIC [12]: 2 µg/mL (≈ 5.31 µM); MBC [12]: 2 µg/mL (≈ 5.31 µM)
